± gives the expanded uncertainty stated by the source.
Test: mn = molality of the nth substance listed, in mol/kg
Conditions: 303.15 K, 101 kPa, Liquid, Vibrating tube method

Row | mass density (m1 = 0.01) | mass density (m1 = 0.101) | mass density (m1 = 0.5) | mass density (m1 = 1.001) | mass density (m1 = 1.501) | mass density (m1 = 0.043) | mass density (m1 = 0.1) | mass density (m1 = 0.417) | mass density (m1 = 0.896) | mass density (m1 = 1.454) | mass density (m1 = 0.053) | mass density (m1 = 1.002) | mass density (m1 = 1.502) | Structure (SMILES)
1 | 996.13 ± 0.84 kg/m3 | 1007.45 ± 0.85 kg/m3 | 1042.49 ± 0.85 kg/m3 | 1093.14 ± 0.85 kg/m3 | 1147.45 ± 0.86 kg/m3 | – | – | – | – | – | – | – | – | O=C([O-])CCC(=O)C(=O)[O-].[Na+].[Na+] [disodium 2-oxo-glutarate] + O
2 | 996.19 ± 0.84 kg/m3 | – | – | – | – | 999.15 ± 0.84 kg/m3 | 1004.02 ± 0.84 kg/m3 | 1030.44 ± 0.84 kg/m3 | 1066.63 ± 0.85 kg/m3 | 1104.02 ± 0.85 kg/m3 | – | – | – | N[C@@H](CCC(=O)[O-])C(=O)O.[Na+] [sodium (S)-2-amino-4-carboxybutanoate] + O
3 | 995.66 ± 0.84 kg/m3 | 1000.51 ± 0.84 kg/m3 | 1018.19 ± 0.84 kg/m3 | – | – | – | – | – | – | – | 997.57 ± 0.84 kg/m3 | 1041.67 ± 0.84 kg/m3 | 1065.87 ± 0.84 kg/m3 | CC(=O)C(=O)[O-].[Na+] [sodium pyruvate] + O

From the NIST ThermoML archive (doi:10.1016/j.fluid.2016.01.023)
